How the values were obtained:
[1] = test system: hepatocytes in human liver slices; experiment: Viability of hepatocytes in human liver slices (intracellular AST); format: cell-based; conditions: 96 hrs after the culture; Group V liver slices; without drug 57%; no significant difference between samples
Description: To determine whether sodium stibogluconate or interferon-alpha 2b protects hepatocytes in human liver slices, the viability of hepatocytes in human liver slices incubated with the drugs was examined. As HCV replication causes the death of hepatocytes, intracellular aspartate aminotransferase (AST) leaks out. The intracellular level of AST therefore positively correlates with the cell viability.
Liver slices prepared from the patients in Group V were treated with sodium stibogluconate or interferon-alpha 2b in the manner described above. The AST activity in the medium was determined using a standard technique 48, 72, and 96 hrs after the slices had been cultured in vitro. The AST activities in a fresh medium and in the liver slices 96 hrs after incubation were also measured. For this purpose, the slices were homogenized using a mini-homogenizer (Pellet Pestles, Kimble Deltaware, Vineland, N.J). The percentages of AST leaked out to the medium and remained in the liver slices were calculated accordingly.

hepatitis C virus (HCV) = experiment: HCV replication (HCV-RNA level by RT-PCR) in human liver slices from hepatitis C patients; format: cell-based; conditions: for suppression of HCV replication in liver slices: 3 days
Description: Liver slices were prepared from liver tissues of the patients. To obtain the livers tissues, biopsy was performed using Bard Biopty-Cut biopsy needles (C. R. Bard, Inc. Covington, Ga.) with a diameter of 1.2 mm (18 gauge). Two equal-sized slices, 1 mm in thickness, were separated from each tissue. The remaining portion (main portion) of each tissue was subjected to pathological examination. The liver slices were incubated in a 24-well culture plate containing 2 ml of minimal essential medium-20% fetal bovine serum and fed with fresh medium daily.
To evaluate whether it suppresses the authentic HCV replication in liver slices, the liver slices from patients S10-1 to S10-6 and S00-1 to S00-6 were incubated with 0, 10, and 100 μg/ml of sodium stibogluconate (Wuhan Shengmao Corp., Hubei, China), respectively, 24 hrs after the slices had been cultured in vitro. The slices from patient S10-5 served as a negative control. Three days later (i.e., 96 hr after the slices were cultured), the level of HCV RNA in each slice was measured.
To detect the HCV-RNA level, one step RT-PCR (not nested) was performed in the manner described in Yeh et al., J. Gen. Virol. 78 (1997) 2761–2770. As a control, β-actin mRNA was measured simultaneously. 20 PCR cycles were performed, in which the amounts of the PCR products had not yet reached to a plateau. The primers used were described in Yeh et al., Oncogene 19 (2000) 5213–5220. […] Methods 65 (1997) 219–226. HCV genotypes were determined using Inno-Lipa HCV II kit (Innogenetics, Zwijndrecht, Belgium).
The responsiveness of patients to Interferon-alpha, a drug currently being used to treat hepatitis C, was evaluated using liver slices. Liver slices prepared from patients INF-1 to 6 were incubated with 5000 U/ml of interferon-alpha2b (Schering-Plough Corp., Kenilworth, N.J. Slices from patient IFN-6, who was infected by hepatitis B virus, were used as negative controls.
The slices form patient […] served as negative controls.

hepatitis C = conditions: cited from earlier work
[2] = cited from earlier work
HCV replicon = experiment: HCV subgenomic RNA replicon system (Ava5); format: cell-based, hepatitis C virus
[3] = test system: HCV in 293EBNA-Sip-L cells; experiment: HCV replication in HCV-infected 293EBNA-Sip-L cell line (intracellular HCV-RNA, nested RT-PCR); format: cell-based, hepatitis C virus; conditions: day 2 to day 7 after infection, RT-PCR sensitivity <10^2 copy per 10^5 cells, untreated cells 2.31×10^5 per 10^5 cells
Description: To verify the ability of sodium stibogluconate to inhibit HCV replication, a 293EBNA-Sip-L cell line was used. This cell line, permissive for HCV infection and replication, had been established by expressing a cellular factor, Sip-L, in 293EBNA cells (Yeh et al., J. Virol. 75 (2001) 11017–11024). This cell line was maintained in a Dulbecco's modified Eagle's medium containing 10% fetal bovine serum, 250 μg/ml G418, and 150 μg/ml hygromycin B. The cells were infected with HCV. Briefly, cells in a 60-mm-diameter petri dish were incubated with a medium containing 5 μl of HCV-positive serum (10^7 copies of HCV-RNA/ml) for 12 hr. The cells were then incubated in a fresh medium without the serum.
At the second day after the HCV infection, 293EBNA-Sip-L cells were incubated with media containing 0, 1, 10, and 100 μg/ml of sodium stibogluconate, respectively. At the seventh day, the cells were harvested to determine the intracellular level of HCV-RNA. The cells were trypsinized and washed two times with a fresh medium by centrifugation. The supernatant of the second wash (as a contamination control) and the washed cells were collected in pairs for RNA extraction and nested RT-PCR. A digoxigenin-labeled probe was used for the subsequent Southern blot analysis. The sequences of the primers, the method for generating the probe, and the procedure for RT-PCR were described in Yeh et al., J. Virol. 75 (2001) 11017–11024. An amplified HCV fragment was cloned into pCR2.1-TOPO (Invitrogen, Carlsbad, Calif.) to generate a plasmid, pTOPO-HCV5n, which served as a positive control in Southern blot analysis. As internal controls, the levels of 18s and 28s RNAs were measured.

Row | Compound | intracellular AST level [1] [%] | suppression of HCV-RNA levels in liver slices (hepatitis C virus (HCV); 5000 U/ml, slices from patient IFN-2) | suppression of HCV-RNA levels in liver slices (hepatitis C virus (HCV); 5000 U/ml, slices from patient IFN-5) | suppression of HCV-RNA levels in liver slices (hepatitis C virus (HCV); 5000 U/ml, slices from patients IFN-1, 3 and 4) | suppression of HCV-RNA levels in liver slices (hepatitis C virus (HCV); interferon heated to 90° C. for 10 min (inactivated) before incubation, slices from patients iIF-1 to 6) | hepatitis C patients responsive to the treatment (hepatitis C) | estimated blood concentration immediately after injection ([2]; daily dose of 20 mg/kg as used in treating kala-azar) | blood concentration needed for treating kala-azar ([2]; in vivo) [µg/mL] | suppression of HCV replication in liver slices (hepatitis C virus (HCV); 10 μg/ml, slices from patient S10-3) | suppression of HCV replication in liver slices (hepatitis C virus (HCV); 10 μg/ml, slices from patients S10-1, S10-2, S10-4 and S10-6) | suppression of HCV replication in liver slices (hepatitis C virus (HCV); 100 μg/ml, slices from patients S00-1, S00-2, S00-3 and S00-5) | suppression of HCV replication in liver slices (hepatitis C virus (HCV); 100 μg/ml, slices from patients S00-4 and S00-6) | suppression of replication of an HCV replicon (HCV replicon) | intracellular HCV-RNA ([3]; 1 μg/ml) | intracellular HCV-RNA ([3]; 10 μg/ml) | intracellular HCV-RNA ([3]; 100 μg/ml)
1 | interferon-alpha 2b | 83 | no suppression | Partial suppression | suppressed to undetectable levels | No suppression | about 50% |  |  |  |  |  |  |  |  |  | 
2 | O.O.O.O.O.O.O.O.O.O=C([O-])[C@@H]1[O][Sb]2([O-])([O][Sb]34([OH])[O][C@H]([C@H](O)CO)[C@H]([O]3)[C@H](C(=O)[O-])[O]4)[O][C@H]([C@H](O)CO)[C@@H]1[O]2.[Na+].[Na+].[Na+] [sodium stibogluconate] |  |  |  |  |  |  | about 400 μg/ml | 400 | not | partially suppressed | almost completely suppressed | not | capable of suppressing | none was detected | none was detected | none was detected

Source: patent publication US7026137B2, “Hepatitis” (Chang Gung University, priority 2003, dated 2006)
